According to PMC12624743 (ACS Infectious Diseases, 2025):
Converted amounts (≈) assume the structure as drawn.

Columns and labels:
[1] = target: T1, N. gonorrhoeae gyrase GyrA^S91F/D95G (Neisseria gonorrhoeae, UniProt P48371, D95G/S91F); experiment: Gyrase-catalyzed DNA supercoiling assay, GyrA^S91F/D95G; type: biochemical; settings: read-out: IC50, inhibition of DNA supercoiling
T1 construct: His; made in house
Protocol: (§1) All proteins were His-tagged. N. gonorrhoeae WT gyrase (GyrA, GyrB) and topoisomerase IV (ParC, ParE) subunits as well as mutant GyrA^D90N, GyrA^A92T, GyrA^S91F, and GyrA^S91F/D95G gyrase and ParC^D86N and ParC^S88P topoisomerase IV were prepared as described previously. , N. gonorrhoeae mutant GyrA^D95G gyrase and mutant ParC^S87N and ParC^E91G topoisomerase IV were generated using a QuickChange II XL site-directed mutagenesis kit (Agilent Technologies) with custom primers for the desired mutations. […] The identities of all constructs were confirmed by DNA sequencing, and all enzymes were stored at −80 °C. In all assays, N. gonorrhoeae gyrase or topoisomerase IV was used as a 1:1 GyrA:GyrB or ParC:ParE mixture, respectively, and the stated enzyme concentration reflects that of the holoenzyme (A2B2).
(§2) Samples were mixed with 2 μL of loading dye [60% sucrose, 10 mM Tris–HCl (pH 7.9), 0.5% bromophenol blue, and 0.5% xylene cyanol FF] and incubated at 45 °C for 2 min before being subjected to electrophoresis on 1% agarose gels in 100 mM Tris-borate (pH 8.3) and 2 mM EDTA. […] DNA bands were visualized with medium-range ultraviolet light and quantified using an Alpha Innotech digital imaging system (Protein Simple). DNA supercoiling was monitored by the conversion of relaxed to supercoiled plasmid.

[2] = target: T2, N. gonorrhoeae gyrase GyrA^D90N (Neisseria gonorrhoeae, UniProt P48371, D90N); experiment: Gyrase-catalyzed DNA supercoiling assay, GyrA^D90N; type: biochemical; settings: read-out: IC50, inhibition of DNA supercoiling
T2 construct: His; made in house
T2 sequence (P48371 whole entry D90N): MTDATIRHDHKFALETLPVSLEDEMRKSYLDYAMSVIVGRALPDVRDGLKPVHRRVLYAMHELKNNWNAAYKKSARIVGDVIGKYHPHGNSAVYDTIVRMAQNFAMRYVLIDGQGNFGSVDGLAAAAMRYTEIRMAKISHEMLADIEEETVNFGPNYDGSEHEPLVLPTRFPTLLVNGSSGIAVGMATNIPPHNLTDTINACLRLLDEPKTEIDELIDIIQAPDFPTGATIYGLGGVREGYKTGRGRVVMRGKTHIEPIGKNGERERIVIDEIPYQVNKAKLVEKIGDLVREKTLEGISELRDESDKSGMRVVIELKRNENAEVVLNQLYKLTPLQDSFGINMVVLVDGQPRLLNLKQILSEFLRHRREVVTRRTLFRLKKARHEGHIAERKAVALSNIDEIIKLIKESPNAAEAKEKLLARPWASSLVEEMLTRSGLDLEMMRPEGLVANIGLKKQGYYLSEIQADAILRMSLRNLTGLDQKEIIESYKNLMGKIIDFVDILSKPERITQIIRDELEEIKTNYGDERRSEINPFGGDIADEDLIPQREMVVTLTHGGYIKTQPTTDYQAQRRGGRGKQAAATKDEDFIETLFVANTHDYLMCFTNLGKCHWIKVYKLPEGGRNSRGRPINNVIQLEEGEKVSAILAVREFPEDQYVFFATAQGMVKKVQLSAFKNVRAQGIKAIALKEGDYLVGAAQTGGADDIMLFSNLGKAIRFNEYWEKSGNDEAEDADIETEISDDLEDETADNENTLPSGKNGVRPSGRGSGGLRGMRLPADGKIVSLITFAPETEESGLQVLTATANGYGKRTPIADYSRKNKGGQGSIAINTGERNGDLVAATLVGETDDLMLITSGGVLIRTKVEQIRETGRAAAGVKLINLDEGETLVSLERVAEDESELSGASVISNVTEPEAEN
T2 sequence (P22118 whole entry partner): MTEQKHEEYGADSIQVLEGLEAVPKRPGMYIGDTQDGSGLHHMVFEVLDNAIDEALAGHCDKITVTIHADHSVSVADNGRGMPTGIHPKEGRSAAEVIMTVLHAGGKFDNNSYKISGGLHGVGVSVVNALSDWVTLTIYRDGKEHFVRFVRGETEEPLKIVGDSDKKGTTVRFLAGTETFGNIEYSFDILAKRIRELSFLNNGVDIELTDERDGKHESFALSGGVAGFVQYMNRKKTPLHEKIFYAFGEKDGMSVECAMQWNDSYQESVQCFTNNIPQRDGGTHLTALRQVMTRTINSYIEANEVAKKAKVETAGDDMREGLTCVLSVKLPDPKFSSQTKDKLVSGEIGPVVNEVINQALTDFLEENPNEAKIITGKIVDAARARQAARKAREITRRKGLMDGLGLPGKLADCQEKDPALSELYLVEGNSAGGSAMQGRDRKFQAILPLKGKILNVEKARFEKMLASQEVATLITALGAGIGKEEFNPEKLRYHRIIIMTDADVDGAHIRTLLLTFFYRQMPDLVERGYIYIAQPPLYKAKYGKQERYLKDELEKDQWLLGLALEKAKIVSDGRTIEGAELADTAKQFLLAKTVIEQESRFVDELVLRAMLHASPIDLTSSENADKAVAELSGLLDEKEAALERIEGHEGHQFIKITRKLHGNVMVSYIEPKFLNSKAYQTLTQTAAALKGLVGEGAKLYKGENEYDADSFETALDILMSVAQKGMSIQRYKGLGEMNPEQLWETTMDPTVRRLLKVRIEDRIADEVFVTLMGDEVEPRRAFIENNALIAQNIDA
Protocol: as §1, §2

[3] = target: T1, N. gonorrhoeae gyrase GyrA^S91F/D95G; experiment: DNA cleavage assay, GyrA^S91F/D95G gyrase; type: biochemical
Protocol: (§3) Some experiments replaced MgCl2 with an equivalent concentration of CaCl2 (10 mM), or 1.5 mM ATP was added to assay mixtures.
(§4) Reactions were incubated at 37 °C for 30 min with WT and mutant (GyrA^D90N, GyrA^A92T, GyrA^S91F, GyrA^D95G, or GyrA^S91F/D95G) N. gonorrhoeae gyrase, 10 min with WT N. gonorrhoeae topoisomerase IV, and 20 min with mutant (ParC^D86N, ParC^S88P, ParC^S87N, or ParC^E91G) N. gonorrhoeae topoisomerase IV. Enzyme-DNA cleavage complexes were trapped by adding 2 μL of 5% SDS followed by 2 μL of 250 mM EDTA (pH 8.0). Proteinase K was added (2 μL of a 0.8 mg/mL solution), and reaction mixtures were incubated at 45 °C for 30 min to digest the enzyme. Samples were mixed with 2 μL of loading buffer and heated at 45 °C for 2 min prior to electrophoresis in 1% agarose gels in 40 mM Tris-acetate (pH 8.3), and 2 mM EDTA containing 0.5 μg/mL ethidium bromide. DNA bands were visualized by midrange ultraviolet light and quantified using an Alpha Innotech digital imaging system (Protein Simple). Single-stranded DNA cleavage was monitored by the conversion of negatively supercoiled to nicked plasmid molecules.

[4] = tested on: N. gonorrhoeae topoisomerase IV ParC^E91G; experiment: Topoisomerase IV-catalyzed DNA decatenation assay, ParC^E91G; type: biochemical, Neisseria gonorrhoeae; settings: ParC E91G vs WT
Protocol: (§5) All proteins were His-tagged. N. gonorrhoeae WT gyrase (GyrA, GyrB) and topoisomerase IV (ParC, ParE) subunits as well as mutant GyrA^D90N, GyrA^A92T, GyrA^S91F, and GyrA^S91F/D95G gyrase and ParC^D86N and ParC^S88P topoisomerase IV were prepared as described previously. , N. gonorrhoeae mutant GyrA^D95G gyrase and mutant ParC^S87N and ParC^E91G topoisomerase IV were generated using a QuickChange II XL site-directed mutagenesis kit (Agilent Technologies) with custom primers for the desired mutations. Mutant N. gonorrhoeae GyrA and ParC subunits were expressed and purified as described by Ashley et al. with the following modifications to optimize protein expression and lysis: (1) GyrA^D95G was expressed for 2.5 h and ParC^S87N and ParC^E91G were expressed for 3 h before harvesting, and (2) cells were lysed by sonication using a digital sonifier (Branson). The identities of all constructs were confirmed by DNA sequencing, and all enzymes were stored at −80 °C. In all assays, N. gonorrhoeae gyrase or topoisomerase IV was used as a 1:1 GyrA:GyrB or ParC:ParE mixture, respectively, and the stated enzyme concentration reflects that of the holoenzyme (A2B2). […]

[5] = tested on: N. gonorrhoeae FA1090E-4 (GyrA^D90N/ParC^WT); experiment: MIC by agar dilution, GyrA^D90N strain; type: cell-based; settings: Neisseria gonorrhoeae
Protocol: This strain was designated FA1090E-4 (GyrA^D90N).
Minimum inhibitory concentration (MIC) of test compounds was determined by an agar dilution method, the reference testing method for N. gonorrhoeae according to the standards of the Clinical and Laboratory Standards Institute and the CDC.

[6] = target: T2, N. gonorrhoeae gyrase GyrA^D90N; experiment: DNA cleavage assay, GyrA^D90N gyrase; type: biochemical
Protocol: as §3, §4

[7] = target: N. gonorrhoeae topoisomerase IV ParC^S87N (Neisseria gonorrhoeae, UniProt P48374, S87N); experiment: Topoisomerase IV-catalyzed DNA decatenation assay, ParC^S87N; type: biochemical; set-up: His; made in house
Sequence of N. gonorrhoeae topoisomerase IV ParC^S87N (P48374 whole entry S87N): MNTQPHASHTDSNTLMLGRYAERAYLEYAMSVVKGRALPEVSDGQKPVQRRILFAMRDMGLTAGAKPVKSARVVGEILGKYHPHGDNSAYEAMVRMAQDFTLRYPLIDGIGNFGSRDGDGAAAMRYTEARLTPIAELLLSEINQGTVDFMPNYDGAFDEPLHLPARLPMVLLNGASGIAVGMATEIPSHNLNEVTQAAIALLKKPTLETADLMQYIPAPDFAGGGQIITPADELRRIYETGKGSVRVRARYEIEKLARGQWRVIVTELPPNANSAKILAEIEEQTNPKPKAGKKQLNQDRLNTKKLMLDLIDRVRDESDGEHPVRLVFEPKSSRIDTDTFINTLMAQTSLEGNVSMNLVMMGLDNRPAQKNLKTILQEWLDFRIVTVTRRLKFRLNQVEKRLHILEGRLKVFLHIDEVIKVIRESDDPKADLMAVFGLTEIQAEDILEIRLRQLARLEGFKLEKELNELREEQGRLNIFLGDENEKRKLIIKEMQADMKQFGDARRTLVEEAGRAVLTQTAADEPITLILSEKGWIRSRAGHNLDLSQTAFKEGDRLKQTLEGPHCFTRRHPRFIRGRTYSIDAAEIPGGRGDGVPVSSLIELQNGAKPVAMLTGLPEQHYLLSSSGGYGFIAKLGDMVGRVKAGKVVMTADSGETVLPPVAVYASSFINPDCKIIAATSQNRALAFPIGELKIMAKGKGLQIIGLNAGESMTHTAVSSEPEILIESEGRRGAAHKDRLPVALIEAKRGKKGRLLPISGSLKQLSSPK
Protocol: as §5

[8] = target: N. gonorrhoeae topoisomerase IV ParC^E91G (Neisseria gonorrhoeae, UniProt P48374, E91G); experiment: Topoisomerase IV-catalyzed DNA decatenation assay, ParC^E91G; type: biochemical; set-up: His; made in house
Sequence of N. gonorrhoeae topoisomerase IV ParC^E91G (Neisseria gonorrhoeae, UniProt P48374, E91G) (P48374 whole entry E91G): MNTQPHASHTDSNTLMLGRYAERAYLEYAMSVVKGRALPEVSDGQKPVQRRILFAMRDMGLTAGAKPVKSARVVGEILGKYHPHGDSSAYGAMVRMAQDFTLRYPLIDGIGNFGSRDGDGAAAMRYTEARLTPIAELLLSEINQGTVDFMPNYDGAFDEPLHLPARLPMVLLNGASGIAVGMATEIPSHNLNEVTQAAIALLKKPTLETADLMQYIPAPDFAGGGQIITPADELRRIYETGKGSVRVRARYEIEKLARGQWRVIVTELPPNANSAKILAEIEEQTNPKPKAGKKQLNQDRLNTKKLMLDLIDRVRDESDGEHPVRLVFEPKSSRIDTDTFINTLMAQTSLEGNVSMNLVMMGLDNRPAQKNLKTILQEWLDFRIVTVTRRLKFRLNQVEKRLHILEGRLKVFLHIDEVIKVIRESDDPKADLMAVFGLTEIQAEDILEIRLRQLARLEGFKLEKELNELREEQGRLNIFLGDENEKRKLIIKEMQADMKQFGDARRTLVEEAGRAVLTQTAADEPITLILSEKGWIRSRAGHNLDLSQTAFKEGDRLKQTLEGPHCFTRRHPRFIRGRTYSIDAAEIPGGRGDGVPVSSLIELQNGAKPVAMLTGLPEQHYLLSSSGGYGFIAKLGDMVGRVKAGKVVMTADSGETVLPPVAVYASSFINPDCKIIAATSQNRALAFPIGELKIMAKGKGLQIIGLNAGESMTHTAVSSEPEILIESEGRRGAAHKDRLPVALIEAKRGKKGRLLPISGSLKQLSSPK
Protocol: as §5

T1 sequence (P48371 whole entry S91F/D95G): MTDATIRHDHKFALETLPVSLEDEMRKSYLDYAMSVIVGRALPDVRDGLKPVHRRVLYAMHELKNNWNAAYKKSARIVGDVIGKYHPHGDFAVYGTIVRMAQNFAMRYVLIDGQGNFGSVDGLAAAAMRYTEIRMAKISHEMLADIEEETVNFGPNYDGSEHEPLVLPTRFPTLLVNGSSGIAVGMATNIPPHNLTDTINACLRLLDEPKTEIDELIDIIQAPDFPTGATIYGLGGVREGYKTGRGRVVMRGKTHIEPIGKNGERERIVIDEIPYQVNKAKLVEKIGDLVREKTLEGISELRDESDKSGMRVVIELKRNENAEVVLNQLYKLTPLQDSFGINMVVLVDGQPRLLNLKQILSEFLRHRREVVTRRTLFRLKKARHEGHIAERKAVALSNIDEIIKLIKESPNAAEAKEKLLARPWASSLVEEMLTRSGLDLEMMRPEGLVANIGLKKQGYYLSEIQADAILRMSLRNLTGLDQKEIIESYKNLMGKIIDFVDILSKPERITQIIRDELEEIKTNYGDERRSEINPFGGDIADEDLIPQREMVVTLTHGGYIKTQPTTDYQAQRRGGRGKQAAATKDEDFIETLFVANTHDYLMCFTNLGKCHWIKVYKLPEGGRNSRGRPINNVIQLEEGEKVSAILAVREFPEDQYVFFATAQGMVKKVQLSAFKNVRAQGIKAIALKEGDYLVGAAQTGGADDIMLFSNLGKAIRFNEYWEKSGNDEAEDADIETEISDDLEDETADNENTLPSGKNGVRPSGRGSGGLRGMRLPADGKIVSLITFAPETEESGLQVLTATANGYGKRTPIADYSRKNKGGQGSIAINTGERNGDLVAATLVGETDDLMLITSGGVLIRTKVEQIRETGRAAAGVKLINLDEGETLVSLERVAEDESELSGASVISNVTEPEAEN
T1 sequence (P22118 whole entry partner): as the sequence (P22118 whole entry partner) above

SMILES: O=c1ccc2ncc(=O)n3c2n1C[C@H]3CN1CCC(NCc2cc3c(cn2)OCCC3)CC1 [gepotidacin]
- IC50 [1]: 3600 ± 2400 nM
- IC50 [2]: > 100000 nM
- Adj-Max Cleavage, single-stranded DNA breaks [3]: 3.9%
- EC50 ([3]; GyrA S91F/D95G gyrase, read-out: CC50, single-stranded DNA cleavage): 800 nM
- fold decrease of adjusted maximal DNA cleavage vs WT ([3]; GyrA S91F/D95G vs WT): ~4.4 fold
- fold lower decatenation IC50 vs WT topoisomerase IV [4]: ~1.2 fold
- MIC [5]: 1 µg/mL (≈ 2.23 µM)
- Adj-Max Cleavage, single-stranded DNA breaks [6]: 1.7%
- increase in gepotidacin-induced DNA cleavage ([6]; GyrA D90N gyrase): essentially no increase
- IC50 [7]: 800 nM
- IC50 [8]: 1500 nM
